Results on 15 molecules are retold here after ChEMBL document CHEMBL1129592 (J Med Chem, 1996).

Assay [1] addresses 5-hydroxytryptamine receptor 2A (Rattus norvegicus, UniProt P14842). The assay is described as follows: Binding affinity towards rat 5-hydroxytryptamine 2A receptor was evaluated using [3H]- ketanserin as radioligand.
In assay [2] the target is T1, Adrenergic receptor alpha-2 (Rattus norvegicus, UniProt P22086+P19328+P22909).
T1 sequence (P22086 whole entry): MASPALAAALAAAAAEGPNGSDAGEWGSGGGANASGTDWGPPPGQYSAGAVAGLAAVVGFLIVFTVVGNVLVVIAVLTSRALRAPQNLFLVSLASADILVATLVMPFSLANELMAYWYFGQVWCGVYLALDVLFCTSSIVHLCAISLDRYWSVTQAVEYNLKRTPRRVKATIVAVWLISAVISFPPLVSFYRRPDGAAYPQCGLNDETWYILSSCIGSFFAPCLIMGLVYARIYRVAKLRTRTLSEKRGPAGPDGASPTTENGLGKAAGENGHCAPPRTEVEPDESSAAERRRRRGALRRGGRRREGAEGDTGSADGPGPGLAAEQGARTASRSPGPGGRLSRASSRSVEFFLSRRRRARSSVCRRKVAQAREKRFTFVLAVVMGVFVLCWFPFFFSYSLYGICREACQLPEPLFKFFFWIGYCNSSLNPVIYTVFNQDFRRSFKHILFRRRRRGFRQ
T1 sequence (P19328 whole entry): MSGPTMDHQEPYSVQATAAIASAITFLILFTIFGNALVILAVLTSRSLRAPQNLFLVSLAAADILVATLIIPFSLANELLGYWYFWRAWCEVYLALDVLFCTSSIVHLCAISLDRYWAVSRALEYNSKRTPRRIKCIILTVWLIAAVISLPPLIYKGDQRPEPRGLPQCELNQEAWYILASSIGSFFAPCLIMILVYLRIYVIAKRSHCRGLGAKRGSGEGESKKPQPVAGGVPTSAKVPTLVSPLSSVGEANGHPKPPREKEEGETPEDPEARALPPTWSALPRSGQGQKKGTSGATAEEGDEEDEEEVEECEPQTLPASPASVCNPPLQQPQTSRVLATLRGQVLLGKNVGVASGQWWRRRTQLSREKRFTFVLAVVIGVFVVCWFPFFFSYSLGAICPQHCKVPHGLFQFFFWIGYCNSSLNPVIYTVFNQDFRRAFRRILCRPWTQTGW
T1 sequence (P22909 whole entry): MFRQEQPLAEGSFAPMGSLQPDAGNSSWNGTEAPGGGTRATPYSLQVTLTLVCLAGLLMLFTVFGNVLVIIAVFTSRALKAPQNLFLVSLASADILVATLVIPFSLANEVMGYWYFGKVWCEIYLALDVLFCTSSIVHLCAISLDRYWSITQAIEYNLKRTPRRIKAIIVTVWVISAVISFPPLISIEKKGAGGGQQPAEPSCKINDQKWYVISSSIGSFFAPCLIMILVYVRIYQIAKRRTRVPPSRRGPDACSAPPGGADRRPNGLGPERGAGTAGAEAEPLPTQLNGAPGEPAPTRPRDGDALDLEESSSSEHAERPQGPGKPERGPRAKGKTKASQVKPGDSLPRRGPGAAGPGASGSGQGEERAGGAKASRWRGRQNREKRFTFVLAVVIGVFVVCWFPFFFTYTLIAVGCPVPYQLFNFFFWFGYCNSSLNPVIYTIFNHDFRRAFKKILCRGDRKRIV
Briefly: Binding affinity towards rat Alpha-2 adrenergic receptor was evaluated using [3H]- yohimbine as radioligand. In kind it is protein assay.

Assay [3] concerns the target T2, Adrenergic receptor alpha-1 (Rattus norvegicus, UniProt P15823+P23944+P43140).
T2 sequence (P15823 whole entry): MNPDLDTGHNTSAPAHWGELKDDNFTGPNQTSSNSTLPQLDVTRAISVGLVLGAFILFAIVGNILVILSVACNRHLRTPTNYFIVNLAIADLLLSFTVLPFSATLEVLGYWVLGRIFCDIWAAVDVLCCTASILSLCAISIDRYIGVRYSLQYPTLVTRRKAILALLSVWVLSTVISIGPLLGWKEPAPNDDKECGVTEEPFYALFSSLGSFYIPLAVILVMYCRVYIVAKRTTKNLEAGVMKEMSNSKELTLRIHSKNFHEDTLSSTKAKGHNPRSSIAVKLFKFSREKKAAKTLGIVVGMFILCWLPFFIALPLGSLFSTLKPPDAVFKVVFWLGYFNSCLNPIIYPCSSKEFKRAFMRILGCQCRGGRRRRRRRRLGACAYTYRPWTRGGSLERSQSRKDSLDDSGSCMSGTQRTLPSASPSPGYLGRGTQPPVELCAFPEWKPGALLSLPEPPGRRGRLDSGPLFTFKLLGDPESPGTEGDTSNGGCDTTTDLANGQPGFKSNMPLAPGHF
T2 sequence (P23944 whole entry): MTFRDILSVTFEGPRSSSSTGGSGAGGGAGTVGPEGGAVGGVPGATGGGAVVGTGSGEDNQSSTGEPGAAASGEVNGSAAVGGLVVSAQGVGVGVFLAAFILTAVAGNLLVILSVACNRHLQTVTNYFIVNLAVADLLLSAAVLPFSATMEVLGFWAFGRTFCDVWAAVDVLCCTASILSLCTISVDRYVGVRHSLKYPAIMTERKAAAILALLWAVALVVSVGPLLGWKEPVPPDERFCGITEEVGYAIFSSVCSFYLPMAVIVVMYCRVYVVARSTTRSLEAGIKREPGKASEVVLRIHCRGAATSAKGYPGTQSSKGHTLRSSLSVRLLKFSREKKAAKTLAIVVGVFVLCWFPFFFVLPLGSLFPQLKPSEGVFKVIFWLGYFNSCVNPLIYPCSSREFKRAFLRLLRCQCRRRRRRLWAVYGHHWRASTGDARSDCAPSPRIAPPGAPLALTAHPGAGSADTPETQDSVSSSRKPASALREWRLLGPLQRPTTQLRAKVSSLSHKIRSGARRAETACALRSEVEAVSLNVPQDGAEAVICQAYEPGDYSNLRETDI
T2 sequence (P43140 whole entry): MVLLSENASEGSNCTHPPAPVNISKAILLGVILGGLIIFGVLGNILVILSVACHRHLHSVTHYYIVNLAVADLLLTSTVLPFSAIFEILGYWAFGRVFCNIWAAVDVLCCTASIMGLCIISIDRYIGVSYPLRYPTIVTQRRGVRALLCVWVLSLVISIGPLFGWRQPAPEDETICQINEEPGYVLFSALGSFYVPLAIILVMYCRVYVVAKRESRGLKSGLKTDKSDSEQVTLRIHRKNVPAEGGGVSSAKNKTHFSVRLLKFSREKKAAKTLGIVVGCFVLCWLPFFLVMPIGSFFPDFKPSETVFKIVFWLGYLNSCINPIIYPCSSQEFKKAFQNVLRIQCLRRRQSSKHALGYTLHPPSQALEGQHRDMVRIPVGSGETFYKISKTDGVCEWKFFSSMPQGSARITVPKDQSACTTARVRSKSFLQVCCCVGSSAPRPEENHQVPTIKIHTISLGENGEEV
The assay is described as follows: Binding affinity towards rat Alpha-1 adrenergic receptor was evaluated using [3H]- prazosin as radioligand. Format: protein assay.

For assay [4], the target named is D(2) dopamine receptor (Rattus norvegicus, UniProt P61169). The assay is described as follows: Binding affinity towards rat Dopamine receptor D2 was evaluated using [3H]- spiroperidol as radioligand.
Assay [5] can be described thus: Selectivity ratio of IC50 values of 5-hydroxytryptamine 1A receptor vs dopamine receptor D2.
Assay [6] can be described thus: Selectivity ratio of IC50 values of 5-hydroxytryptamine 1A receptor vs Alpha-2 adrenergic receptor.
The nature of assay [7]: Selectivity ratio of IC50 values of 5-hydroxytryptamine 1A receptor vs 5-hydroxytryptamine 2 receptor.
Assay [8] deals with T3, 5-hydroxytryptamine receptor 1A (Rattus norvegicus, UniProt P19327).
T3 sequence (P19327 whole entry): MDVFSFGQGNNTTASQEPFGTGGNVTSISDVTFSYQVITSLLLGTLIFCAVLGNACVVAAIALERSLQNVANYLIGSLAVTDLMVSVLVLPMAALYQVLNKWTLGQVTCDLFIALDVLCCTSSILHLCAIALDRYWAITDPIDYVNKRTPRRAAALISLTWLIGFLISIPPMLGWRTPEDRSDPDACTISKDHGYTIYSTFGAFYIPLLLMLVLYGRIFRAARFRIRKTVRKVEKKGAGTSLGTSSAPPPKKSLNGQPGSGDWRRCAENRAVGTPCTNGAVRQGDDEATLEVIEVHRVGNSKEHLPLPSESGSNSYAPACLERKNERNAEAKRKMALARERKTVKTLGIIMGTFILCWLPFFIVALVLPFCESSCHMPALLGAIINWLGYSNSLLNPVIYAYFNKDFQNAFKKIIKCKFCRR
Briefly: Binding affinity towards rat 5-hydroxytryptamine 1A receptor was evaluated using [3H]8-OH-DPAT as radioligand.

Sequence of D(2) dopamine receptor (P61169 whole entry): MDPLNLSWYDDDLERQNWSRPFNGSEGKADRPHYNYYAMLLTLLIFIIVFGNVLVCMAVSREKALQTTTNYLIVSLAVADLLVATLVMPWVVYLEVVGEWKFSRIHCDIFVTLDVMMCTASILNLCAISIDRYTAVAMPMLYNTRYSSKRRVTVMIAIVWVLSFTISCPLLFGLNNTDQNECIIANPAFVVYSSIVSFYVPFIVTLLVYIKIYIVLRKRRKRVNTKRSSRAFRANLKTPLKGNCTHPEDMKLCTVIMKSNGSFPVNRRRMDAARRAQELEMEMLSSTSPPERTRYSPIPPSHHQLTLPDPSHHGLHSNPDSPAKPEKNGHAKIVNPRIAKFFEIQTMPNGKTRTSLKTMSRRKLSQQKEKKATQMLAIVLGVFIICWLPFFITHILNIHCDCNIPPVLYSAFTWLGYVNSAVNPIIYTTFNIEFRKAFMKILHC
Sequence of 5-hydroxytryptamine receptor 2A (P14842 whole entry): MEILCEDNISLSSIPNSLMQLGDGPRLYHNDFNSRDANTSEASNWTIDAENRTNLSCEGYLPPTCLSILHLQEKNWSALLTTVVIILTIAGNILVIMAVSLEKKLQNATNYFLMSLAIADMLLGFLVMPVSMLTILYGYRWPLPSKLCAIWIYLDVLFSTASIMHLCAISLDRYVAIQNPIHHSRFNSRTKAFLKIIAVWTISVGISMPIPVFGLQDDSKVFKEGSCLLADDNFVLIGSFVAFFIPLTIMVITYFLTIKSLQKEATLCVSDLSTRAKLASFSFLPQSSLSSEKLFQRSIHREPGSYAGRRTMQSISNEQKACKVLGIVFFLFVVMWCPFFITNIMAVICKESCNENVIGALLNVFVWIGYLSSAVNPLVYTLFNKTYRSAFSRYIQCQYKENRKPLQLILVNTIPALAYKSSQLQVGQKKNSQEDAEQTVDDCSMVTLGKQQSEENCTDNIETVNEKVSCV

For the molecule `CCCN(CCC)C1CCc2cccc(O)c2C1` (stereo not drawn) [8-OH-DPAT], the IC50 in assay [1] was more than 10000 nM.
`COc1ccc2c(c1)CCCC2CCCN1CCN(c2ccccc2)CC1` (stereo not drawn): the IC50 in assay [1] came to 160 nM; in assay [2], 170 nM; in assay [3] it was 45 nM; in assay [4] it was 91 nM. The Selectivity ratio stood at 17 in assay [5], 31 in assay [6] and 30 in assay [7].
Turning to `COc1cccc2c1CCC/C2=C\CCN1CCN(c2ccccc2)CC1`, the IC50 in assay [1] came out at 580 nM; in assay [2] it was 290 nM; in assay [3] it was 120 nM; in assay [4], 100 nM. Moreover, the Selectivity ratio in assay [5] worked out at 5; in assay [6], 15; in assay [7], 31.
Turning to `COc1ccc2c(c1)CCC(CCN1CCN(c3ccccc3)CC1)=C2`, the IC50 was found to be 8.2 nM in assay [8]; 56 nM in assay [1]; 130 nM in assay [2]; 88 nM in assay [3]; 170 nM in assay [4]. For the same molecule, the Selectivity ratio is 24 in assay [5], 16 in assay [6] and 7 in assay [7].
On to `COc1cccc2c1CCCC2CCCCN1CCN(c2ccccc2)CC1` (stereo not drawn), for which the IC50 in assay [8] is 15 nM; in assay [1], 420 nM; in assay [2], 770 nM; in assay [3] it was 130 nM; in assay [4] it was 110 nM. The Selectivity ratio in assay [5] was found to be 7; in assay [6], 51; in assay [7], 28.
`COc1cccc2c1CCCC2CCCN1CCN(c2ccccc2)CC1` (stereo not drawn) had an IC50 in assay [1] of 230 nM. Also, the Selectivity ratio in assay [5] is 220; in assay [6] it was 520; in assay [7] it was 460.
On to `COc1cccc2c1CCC(CCN1CCN(c3ccccc3)CC1)C2` (stereo not drawn), for which the IC50 amounted to 54 nM in assay [8]; 160 nM in assay [1]; 600 nM in assay [2]; 100 nM in assay [3]; 130 nM in assay [4]. The Selectivity ratio worked out at 2 in assay [5], 11 in assay [6] and 3 in assay [7].
With `COc1cccc2c1CCC(CCN1CCN(c3ccccc3)CC1)=C2`, the 50% inhibitory concentration (IC50) in assay [8] was found to be 191 nM; in assay [1] it was 241 nM; in assay [2], 357 nM; in assay [3] it was 194 nM; in assay [4] it was 276 nM. Moreover, the Selectivity ratio in assay [5] stood at 1; in assay [6], 2; in assay [7] it was 1.
In assay [1], `COc1cccc2c1CCC=C2CCCN1CCN(c2ccccc2)CC1` yielded an IC50 of 204 nM. Moreover, the values for the Selectivity ratio in assay [5] and in assay [7] were 17 and 11, respectively.
For the molecule `COc1cccc2c1CCCC2CCN1CCN(c2ccccc2)CC1` (stereo not drawn), the half-inhibitory concentration (IC50) in assay [8] came out at 140 nM; in assay [1] it was 12 nM; in assay [2], 22 nM; in assay [3] it was 84 nM; in assay [4] it was 210 nM. The Selectivity ratio in assay [5] amounted to 2; in assay [6], 0.2; in assay [7] it was 0.1.
With `COc1cccc2c1C(CCCN1CCN(c3ccccc3)CC1)CCC2` (stereo not drawn), the half-maximal inhibitory concentration (IC50) in assay [8] was 56 nM; in assay [1], 610 nM; in assay [2] it was 140 nM; in assay [3], 130 nM; in assay [4] it was 62 nM. For the same molecule, the Selectivity ratio in assay [5] worked out at 1; in assay [6], 3; in assay [7], 11.
Regarding `COc1ccc2c(c1)C=C(CCN1CCN(c3ccccc3)CC1)CC2`, the half-inhibitory concentration (IC50) was determined as 7.3 nM in assay [8]; 106 nM in assay [1]; 122 nM in assay [2]; 58 nM in assay [3]; 136 nM in assay [4]. For the same molecule, the Selectivity ratio in assay [5] is 22; in assay [6], 18; in assay [7], 15.
`COc1ccccc1N1CCN(CCCC2CCCc3c(OC)cccc32)CC1` (stereo not drawn): the concentration for half-maximal inhibition (IC50) in assay [1] stood at 330 nM.
For the molecule `COc1cccc2c1CCCC2CCCN1CCN(c2ccccn2)CC1` (stereo not drawn), the IC50 in assay [1] worked out at 250 nM. Further, the Selectivity ratio in assay [5] was determined as 259; in assay [6], 89; in assay [7], 462.
Regarding `COc1ccc2c(c1)C(CCCN1CCN(c3ccccc3)CC1)=CCC2`, the IC50 is 119 nM in assay [1], 173 nM in assay [3] and 157 nM in assay [4]. For the same molecule, the figures for the Selectivity ratio in assay [5] and in assay [7] were 1 and 0.8, respectively.

As usually defined, the IC50 is the point on the concentration scale where inhibition reaches its midpoint. Lower therefore signals higher potency.
